Experimental findings from patent publication US20260083704A1, “LXR MODULATORS WITH BICYCLIC CORE MOIETY FOR TREATING DYSLIPIDEMIAS” (OrsoBio, Inc., priority 2022, published 2026) are described below.

For experiment [1], the target named is T1, GST-LXRβ ligand-binding domain (Homo sapiens, UniProt P55055).
T1 construct: amino acids 156-461; NP009052; made in house; host or cells: E. coli
T1 sequence (P55055 156-460 limits assumed): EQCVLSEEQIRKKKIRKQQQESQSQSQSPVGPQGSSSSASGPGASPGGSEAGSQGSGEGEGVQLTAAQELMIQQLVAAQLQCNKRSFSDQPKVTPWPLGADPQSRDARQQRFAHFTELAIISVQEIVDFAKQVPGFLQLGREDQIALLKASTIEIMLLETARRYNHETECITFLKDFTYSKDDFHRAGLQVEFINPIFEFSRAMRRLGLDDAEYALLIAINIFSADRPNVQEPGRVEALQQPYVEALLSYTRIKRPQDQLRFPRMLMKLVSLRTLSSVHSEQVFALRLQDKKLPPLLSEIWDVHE
In words: TR-FRETβ activity assay (NCoA3 coactivator peptide recruitment). Format: biochemical. As to conditions: 1 μM 24(S)-25-epoxycholesterol prestimulation. The essentials: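 E. coli-expressed GST-LXRβ LBD (aa 156-461, 76 nM) with biotinylated NCoA3 peptide (400 nM) in Tris/HCl pH 6.8 containing 1 μM 24(S)-25-epoxycholesterol agonist. Compounds tested at 50 μM down to 0.002 μM in triplicate. TR-FRET (Tb cryptate/XL665, ex 340, em 615/665 nm) read after 1 h at 4° C.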

In experiment [2] the target is T2, LXRβ (Homo sapiens, UniProt P55055).
T2 sequence (P55055 1-460): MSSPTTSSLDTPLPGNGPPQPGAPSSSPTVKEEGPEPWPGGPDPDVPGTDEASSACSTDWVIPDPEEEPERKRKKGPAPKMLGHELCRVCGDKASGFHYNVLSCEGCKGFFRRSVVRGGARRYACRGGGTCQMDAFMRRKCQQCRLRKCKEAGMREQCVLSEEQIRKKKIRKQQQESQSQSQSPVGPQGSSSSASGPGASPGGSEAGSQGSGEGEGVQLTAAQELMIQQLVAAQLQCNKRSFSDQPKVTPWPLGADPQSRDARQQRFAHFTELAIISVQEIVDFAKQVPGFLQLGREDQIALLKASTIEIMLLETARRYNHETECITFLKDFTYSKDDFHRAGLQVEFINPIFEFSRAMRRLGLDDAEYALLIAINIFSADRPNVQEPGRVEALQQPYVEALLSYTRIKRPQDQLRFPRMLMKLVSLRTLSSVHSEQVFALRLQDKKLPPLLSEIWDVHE
In words: LXR Gal4 reporter transient transfection assay (mammalian two-hybrid, HEK293), LXRβ. The note with it: full length (FL) LXRβ, HEK293; read-out: FL-M2H Gal4β. Also noted: LXRβ (amino acids 156-461); expressed in transfected cells; host or cells: HEK293. It is filed as cell-based. The essentials:
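HEK293 cells transiently co-transfected with full-length or LBD LXRα/LXRβ fused to NFkB activation domain, GAL4-DBD-fused SRC1 or NCoR cofactor domain, GAL4-responsive firefly luciferase reporter and Renilla control. Compound added 4 h post-transfection (≤0.2% DMSO), incubated 16 h; firefly and Renilla luminescence read sequentially.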

For `CN(CCS(=O)(=O)O)C(=O)c1ccc(-c2cccc(-c3c(-c4c(C#N)cccc4C#N)c4cc(F)ccc4n3S(=O)(=O)c3ccc(C(F)F)cc3)c2)c(Cl)c1` [10/2], the EC50 in experiment [1] and in experiment [2] was less than 100 nM in each case.
For the molecule `N#Cc1cccc(C#N)c1-c1c(-c2cccc(-c3ccc(C(=O)O)cc3Cl)c2)n(S(=O)(=O)c2ccc(C(F)(F)F)nc2)c2ccc(F)cc12` [11/37], the EC50 in experiment [1] and in experiment [2] was less than 100 nM in each case.
Regarding `COc1c(C(=O)O)ccc(-c2cccc(-c3c(-c4ccccc4C#N)c4cc(F)ccc4n3S(=O)(=O)c3ccc(C(F)F)cc3)c2)c1Cl` [11/27], the EC50 in experiment [1] and in experiment [2] was less than 100 nM each time.
Consider `O=C(O)c1ccc(-c2cccc(-c3c(-c4ccccc4C4COC4)c4cc(F)ccc4n3S(=O)(=O)c3ccc(C(F)F)cc3)c2)c(Cl)c1` [3/59], for which the EC50 in experiment [1] and in experiment [2] was less than 100 nM throughout.
Take `N#Cc1cccc(C#N)c1-c1c(-c2cccc(-c3ccc(C(=O)O)cc3F)c2)n(S(=O)(=O)c2ccc(C(F)F)cc2)c2ccc(F)cc12` [11/51]: the EC50 in experiment [1] and in experiment [2] was less than 100 nM in each case.
With `N#Cc1cccc(C#N)c1-c1c(-c2cccc(-c3ccc(C(=O)O)cc3Cl)c2)n(S(=O)(=O)C2CCC(F)(F)CC2)c2ccc(F)cc12` [11/63], the figures for the EC50 in experiment [1] and in experiment [2] were 100 to 1000 nM and less than 100 nM, respectively.
The matching figures for `CC(=O)NS(=O)(=O)c1ccc(-c2cccc(-c3c(-c4c(C#N)cccc4C#N)c4cc(F)ccc4n3S(=O)(=O)c3ccc(C(F)F)cc3)c2)c(Cl)c1` [8/8]: less than 100 nM and less than 100 nM.
As to `N#Cc1ccccc1-c1c(-c2cccc(-c3ccc(C(=O)O)cc3Cl)c2)n(S(=O)(=O)c2ccc(C(F)F)cc2)c2cnccc12` [11/49], the EC50 in experiment [1] and in experiment [2] was less than 100 nM throughout.
`N#Cc1sccc1-c1c(-c2cccc(-c3ccc(C(=O)O)cc3Cl)c2)n(S(=O)(=O)c2ccc(C(F)(F)F)nc2)c2ccc(F)cc12` [11/16]: the EC50 was 100 to 1000 nM in experiment [1] and less than 100 nM in experiment [2].
For `Cc1ccc(S(=O)(=O)n2c(-c3cccc(-c4ccc(C(=O)O)cc4Cl)c3)c(-c3ccsc3C#N)c3cc(F)ccc32)cc1` [3/48], the EC50 was 100 to 1000 nM in experiment [1] and less than 100 nM in experiment [2].
The matching figures for `N#Cc1cccc(C#N)c1-c1c(-c2cccc(-c3c(F)cc(C(=O)O)cc3F)c2)n(S(=O)(=O)c2ccc(C(F)F)cc2)c2ccc(F)cc12` [11/53]: less than 100 nM and less than 100 nM.
For `N#Cc1cccc(C#N)c1-c1c(-c2cccc(-c3ccc(C(=O)O)cc3Cl)c2)n(S(=O)(=O)c2ccc(C(F)F)cc2)c2ccc(F)cc12` [11/12] the same measures were less than 100 nM and less than 100 nM.
With `N#Cc1nccnc1-c1c(-c2cccc(-c3cc(F)c(C(=O)O)cc3Cl)c2)n(S(=O)(=O)c2ccc(C(F)F)cc2)c2ccc(F)cc12` [11/11], the EC50 in experiment [1] and in experiment [2] was less than 100 nM each time.
Turning to `N#Cc1ccccc1-c1c(-c2cccc(-c3ccc(C(=O)O)cc3Cl)c2)n(S(=O)(=O)c2ccc(C(F)F)cc2)c2ccc(F)cc12` [11/33], the EC50 in experiment [1] and in experiment [2] was less than 100 nM in each case.
As for `N#Cc1cccnc1-c1c(-c2cccc(-c3ccc(C(=O)O)cc3Cl)c2)n(S(=O)(=O)c2ccc(C(F)F)cc2)c2ccc(F)cc12` [11/26], the EC50 in experiment [1] and in experiment [2] was less than 100 nM in each case.
Regarding `N#Cc1cccc(C#N)c1-c1c(-c2cccc([C@H]3CC[C@H](C(=O)O)CC3)c2)n(S(=O)(=O)c2ccc(C(F)F)cc2)c2ccc(F)cc12` [11/62], the EC50 in experiment [1] was 100 to 1000 nM; in experiment [2] it was less than 100 nM.
`O=C(O)c1ccc(-c2cccc(-c3c(-c4c(Cl)cccc4Cl)c4cc(F)ccc4n3S(=O)(=O)c3ccc(C(F)F)cc3)c2)c(Cl)c1` [11/13]: the EC50 in experiment [1] and in experiment [2] was less than 100 nM each time.
With `O=C(O)c1ccc(-c2cccc(-c3c(-c4ncccc4C(F)(F)F)c4cc(F)ccc4n3S(=O)(=O)c3ccc(C(F)F)cc3)c2)c(Cl)c1` [11/23], the EC50 in experiment [1] and in experiment [2] was less than 100 nM throughout.
`N#Cc1cccc(C#N)c1-c1c(-c2cccc(-c3ccc(C(=O)NCC(=O)O)cc3Cl)c2)n(S(=O)(=O)c2ccc(C(F)F)cc2)c2ccc(F)cc12` [Compound 21/3]: the EC50 in experiment [1] and in experiment [2] was less than 100 nM throughout.
Turning to `N#Cc1cccc(C#N)c1-c1c(-c2cccc(-c3cc(F)c(C(=O)O)cc3Cl)c2)n(S(=O)(=O)c2ccc(C(F)F)cc2)c2ccc(F)cc12` [11/65], the EC50 in experiment [1] and in experiment [2] was less than 100 nM in each case.
For `N#Cc1sccc1-c1c(-c2cccc(-c3ccc(C(=O)O)cc3Cl)c2)n(S(=O)(=O)c2ccc(C(F)F)cc2)c2ccc(F)cc12` [11/17], the EC50 in experiment [1] and in experiment [2] was less than 100 nM throughout.
As to `N#Cc1cccc(C#N)c1-c1c(-c2cccc(-c3ccc(C(=O)NCCS(=O)(=O)O)cc3Cl)c2)n(S(=O)(=O)c2ccc(C(F)F)cc2)c2ccc(F)cc12` [10/1], the EC50 in experiment [1] and in experiment [2] was less than 100 nM in each case.
On to `CS(=O)(=O)NC(=O)c1ccc(-c2cccc(-c3c(-c4c(C#N)cccc4C#N)c4cc(F)ccc4n3S(=O)(=O)c3ccc(C(F)F)cc3)c2)c(Cl)c1` [32/5], for which the EC50 in experiment [1] and in experiment [2] was less than 100 nM throughout.
With `N#Cc1cccc(C#N)c1-c1c(-c2cccc(-c3c(F)cc(CC(=O)O)cc3F)c2)n(S(=O)(=O)c2ccc(C(F)F)cc2)c2ccc(F)cc12` [3/73], the EC50 in experiment [1] and in experiment [2] was less than 100 nM throughout.
Take `Cc1ccc(S(=O)(=O)n2c(-c3cccc(C45CCC(C(=O)O)(CC4)CC5)c3)c(-c3ccsc3C#N)c3cc(F)ccc32)cc1` [3/64]: the EC50 in experiment [1] was 100 to 1000 nM; in experiment [2], less than 100 nM.
For `Cc1ccc(S(=O)(=O)n2c(-c3cccc(-c4ccc(C(=O)O)cc4)c3)c(-c3ccsc3C#N)c3cc(F)ccc32)cc1C` [23/2], the EC50 in experiment [1] was 100 to 1000 nM; in experiment [2], less than 100 nM.
As for `Cc1ccc(S(=O)(=O)n2c(-c3cccc(-c4ccc(C(=O)O)cc4)c3)c(-c3ccsc3C#N)c3cc(F)ccc32)cc1` [5/3], the EC50 in experiment [1] was 100 to 1000 nM; in experiment [2] it was less than 100 nM.
